Data on 28 molecules can be found in patent US9321767B2, “Azabenzimidazoles as respiratory syncytial virus antiviral agents” (JANSSEN SCIENCES IRELAND UC, priority 2010, dated 2016).

The test system of one data set is rgRSV224 virus. Put plainly: microbe, parasite or virus in culture. Type of data set: cell-based, respiratory syncytial virus (RSV). As to conditions: human respiratory syncytial virus, HeLa, 72 h, read-out: RSV-wt_EC50. The procedure:
(§1) Black 96-well clear-bottom microtiter plates (Corning, Amsterdam, The Netherlands) were filled in duplicate using a customized robot system with serial 4-fold dilutions of compound in a final volume of 50 μl culture medium [RPMI medium without phenol red, 10% FBS, 0.04% gentamycin (50 mg/mL) and 0.5% DMSO]. Then, 100 μl of a HeLa cell suspension (5×10^4 cells/mL) in culture medium was added to each well followed by the addition of 50 μl rgRSV224 (MOI=0.02) virus in culture medium using a multidrop dispenser (Thermo Scientific, Erembodegem, Belgium). rgRSV224 virus is an engineered virus that includes an additional GFP gene (Hallak et al, 2000) and was in-licensed from the NIH (Bethesda, Md., USA). Medium, virus- and mock-infected controls were included in each test. Cells were incubated at 37° C. in a 5% CO2 atmosphere. Three days post-virus exposure, viral replication was quantified by measuring GFP expression in the cells by a MSM laser microscope (Tibotec, Beerse, Belgium). The EC50 was defined as the 50% inhibitory concentration for GFP expression. In parallel, compounds were incubated for three days in a set of white 96-well microtitier plates (Corning) and the cytotoxicity of compounds in HeLa cells was determined by measuring the ATP content of the cells using the ATPlite kit (PerkinElmer, Zaventem, Belgium) according to the manufacturer's instructions. The CC50 was defined as the 50% concentration for cytotoxicity.

A further data set concerns HeLa cells. The experiment in a line: Cytotoxicity in HeLa cells, ATP content (ATPlite kit). Type of data set: cell-based. As to conditions: HeLa cells, three days incubation, ATP content. The procedure:
as §1

As for `CC(C)CCn1c(Cn2c(=O)n(C3CC3)c3ccc(F)cc32)nc2nc(Cl)ccc21` [Compound 6, 3-((5-chloro-1-isopentyl-1H-imidazo[4,5-b]pyridin-2-yl)methyl)-1-cyclopropyl-5-fluoro-1H-benzo[d]imidazol-2(3H)-one], the EC50 with rgRSV224 virus came to 8.67 nM. Moreover, the TOX-HELA_EC50 in the data set on HeLa cells is over 9.836 µM.

`CS(=O)(=O)CCCn1c(Cn2c(=O)n(C3CC3)c3ccncc32)nc2ncccc21` [Compound 7, 1-cyclopropyl-3-((1-(3-(methylsulfonyl)propyl)-1H-imidazo[4,5-b]pyridin-2-yl)methyl)-1H-imidazo[4,5-c]pyridin-2(3H)-one]: the EC50 with rgRSV224 virus worked out at 13.7 nM. Moreover, in the data set on HeLa cells, the TOX-HELA_EC50 is over 9.836 µM.

As to `CC(C)CCn1c(Cn2c(=O)n(C3CC3)c3ccc(F)cc32)nc2ncccc21` [Compound 8, 1-cyclopropyl-5-fluoro-3-((1-isopentyl-1H-imidazo[4,5-b]pyridin-2-yl)methyl)-1H-benzo[d]imidazol-2(3H)-one], the EC50 with rgRSV224 virus amounted to 15.9 nM. For the same molecule, the TOX-HELA_EC50 in the data set with HeLa cells was over 9.836 µM.

Regarding `CC(C)CCn1c(Cn2c(=O)n(C3COC3)c3ccncc32)nc2ncccc21` [Compound 9, 3-((1-isopentyl-1H-imidazo[4,5-b]pyridin-2-yl)methyl)-1-(oxetan-3-yl)-1H-imidazo[4,5-c]pyridin-2(3H)-one], the EC50 in the data set with rgRSV224 virus worked out at 58.1 nM. This molecule returned a TOX-HELA_EC50 in the data set on HeLa cells of over 9.836 µM.

With `COCCCn1c(Cn2c(=O)n(C3CC3)c3ccncc32)nc2ncccc21` [Compound 10], the EC50 in the data set with rgRSV224 virus is 89.3 nM. In the data set on HeLa cells, this molecule gave a TOX-HELA_EC50 of 4.756 µM.

Turning to `O=c1n(Cc2nc3ncccc3n2CCCF)c2cnccc2n1C1CC1` [Compound 11], in the data set with rgRSV224 virus, the EC50 stood at 90.9 nM. The TOX-HELA_EC50 with HeLa cells was over 9.836 µM.

As to `COCCCn1c(Cn2c(=O)n(C3COC3)c3ccncc32)nc2ncccc21` [Compound 12, 3-((1-(3-methoxypropyl)-1H-imidazo[4,5-b]pyridin-2-yl)methyl)-1-(oxetan-3-yl)-1H-imidazo[4,5-c]pyridin-2(3H)-one], in the data set on rgRSV224 virus, the EC50 was determined as 1940 nM. This molecule yielded a TOX-HELA_EC50 in the data set with HeLa cells of over 98.3603 µM.

`CC(C)CCn1c(Cn2c(=O)n(C3CC3)c3ccccc32)nc2nc(Cl)ccc21` [Compound 13, 3-((5-chloro-1-isopentyl-1H-imidazo[4,5-b]pyridin-2-yl)methyl)-3-cyclopropyl-1H-benzo[d]imidazol-2(3H)-one]: the EC50 in the data set with rgRSV224 virus came to 2.3 nM. The molecule also returned a TOX-HELA_EC50 in the data set with HeLa cells of over 9.84 µM.

For the molecule `O=c1n(Cc2nc3nc(Cl)ccc3n2CCCCO)c2cnccc2n1C1CC1` [Compound 14, 3-((5-chloro-1-(4-hydroxybutyl)-1H-imidazo[4,5-b]pyridin-2-yl)methyl)-1-cyclopropyl-1H-imidazo[4,5-c]pyridin-2(3H)-one], in the data set on rgRSV224 virus, the EC50 was 6 nM. The same molecule registered a TOX-HELA_EC50 in the data set on HeLa cells of over 9.84 µM.

Turning to `COCCCn1c(Cn2c(=O)n(C3CC3)c3ccc(F)cc32)nc2ncccc21` [Compound 15, 1-cyclopropyl-5-fluoro-3-((1-(3-methoxypropyl)-1H-imidazo[4,5-b]pyridin-2-yl)methyl)-1H-benzo[d]imidazol-2(3H)-one], in the data set with rgRSV224 virus, the EC50 was 220 nM. The molecule further registered a TOX-HELA_EC50 with HeLa cells of over 98.3603 µM.

In the case of `CC(C)CCn1c(Cn2c(=O)n(C3CC3)c3ccncc32)nc2cc(Br)cnc21` [Compound 16, 3-((6-bromo-3-isopentyl-3H-imidazo[4,5-b]pyridin-2-yl)methyl)-1-cyclopropyl-1H-imidazo[4,5-c]pyridin-2(3H)-one], the EC50 in the data set on rgRSV224 virus amounted to 8.81 nM. The molecule further showed a TOX-HELA_EC50 with HeLa cells of over 98.3603 µM.

On to `CC(C)CCn1c(Cn2c(=O)n(C3CC3)c3ccncc32)nc2cc(CN)cnc21` [Compound 17, 3-((6-(aminomethyl)-3-isopentyl-3H-imidazo[4,5-b]pyridine-2-yl)methyl)-1-cyclopropyl-1H-imidazo[4,5-c]pyridin-2(3H)-one], for which the EC50 with rgRSV224 virus was 11.8 nM. The molecule also gave a TOX-HELA_EC50 in the data set with HeLa cells of over 98.3603 µM.

With `CC(C)CCn1c(Cn2c(=O)n(C3COC3)c3ccncc32)nc2cc(Br)cnc21` [Compound 18, 3-((6-bromo-3-isopentyl-3H-imidazo[4,5-b]pyridin-2-yl)methyl)-1-(oxetan-3-yl)-1H-imidazo[4,5-c]pyridin-2(3H)-one], the EC50 with rgRSV224 virus stood at 17.3 nM. Also, the TOX-HELA_EC50 in the data set on HeLa cells was over 9.836 µM.

As to `O=c1n(Cc2nc3cc(Br)cnc3n2CCCCO)c2cnccc2n1C1CC1` [Compound 19, 3-((6-bromo-3-(4-hydroxybutyl)-3H-imidazo[4,5-b]pyridin-2-yl)methyl)-1-cyclopropyl-1H-imidazo[4,5-c]pyridin-2(3H)-one], the EC50 in the data set on rgRSV224 virus was 19.1 nM. This molecule displayed a TOX-HELA_EC50 in the data set with HeLa cells of over 98.3603 µM.

`O=c1n(Cc2nc3cc(Br)cnc3n2CCCCO)c2cnccc2n1C1COC1` [Compound 20, 3-((6-bromo-3-(4-hydroxybutyl)-3H-imidazo[4,5-b]pyridin-2-yl)methyl)-1-(oxetan-3-yl)-1H-imidazo[4,5-c]pyridin-2(3H)-one]: the EC50 with rgRSV224 virus was determined as 36.1 nM. In the data set on HeLa cells, this molecule came in with a TOX-HELA_EC50 of over 9.836 µM.

`O=c1n(Cc2nc3cc(Cl)cnc3n2CCCCO)c2cnccc2n1C1CC1` [Compound 21, 3-((6-chloro-3-(4-hydroxybutyl)-3H-imidazo[4,5-b]pyridin-2-yl)methyl)-1-cyclopropyl-1H-imidazo[4,5-c]pyridin-2(3H)-one]: in the data set with rgRSV224 virus, the EC50 amounted to 54.6 nM. In the data set on HeLa cells, this molecule returned a TOX-HELA_EC50 of over 9.836 µM.

Take `O=c1n(Cc2nc3cc(F)cnc3n2CCCCO)c2cnccc2n1C1CC1` [Compound 22, 1-cyclopropyl-3-((6-fluoro-3-(4-hydroxybutyl)-3H-imidazo[4,5-b]pyridin-2-yl)methyl)-1H-imidazo[4,5-c]pyridin-2(3H)-one]: the EC50 in the data set on rgRSV224 virus is 403 nM. In the data set with HeLa cells, this molecule had a TOX-HELA_EC50 of over 9.836 µM.

As to `CC(C)CCn1c(Cn2c(=O)n(C3CC3)c3ccncc32)nc2cc(B(O)O)cnc21` [Compound 23, 2-((1-cyclopropyl-2-oxo-1H-imidazo[4,5-c]pyridin-3(2H)-yl)methyl)-3-isopentyl-3H-imidazo[4,5-b]pyridin-6-ylboronic acid], the EC50 in the data set on rgRSV224 virus amounted to 645 nM. This molecule yielded a TOX-HELA_EC50 with HeLa cells of over 98.3603 µM.

In the case of `CC(C)CCn1c(Cn2c(=O)n(C3CC3)c3ccncc32)nc2cccnc21` [Compound 24, 1-cyclopropyl-3-((3-isopentyl-3H-imidazo[4,5-b]pyridin-2-yl)methyl)-1H-imidazo[4,5-c]pyridin-2(3H)-one], the EC50 in the data set with rgRSV224 virus was 1220 nM. In the data set on HeLa cells, this molecule returned a TOX-HELA_EC50 of over 98.3603 µM.

For `CC(C)CCn1c(Cn2c(=O)n(C(C)C)c3ccnc(Cl)c32)nc2cccnc21` [Compound 25, 4-chloro-3-((3-isopentyl-3H-imidazo[4,5-b]pyridin-2-yl)methyl)-1-isopropyl-1H-imidazo[4,5-c]pyridin-2(3H)-one], the EC50 with rgRSV224 virus worked out at 8270 nM. Moreover, the TOX-HELA_EC50 with HeLa cells is over 24.5901 µM.

Consider `COC(=O)c1cnc2c(c1)nc(Cn1c(=O)n(C3CC3)c3ccncc31)n2CCC(C)C` [Compound 26, methyl 2-((1-cyclopropyl-2-oxo-1H-imidazo[4,5-c]pyridin-3(2H)-yl)methyl)-3-isopentyl-3H-imidazo[4,5-b]pyridine-6-carboxylate], for which the EC50 with rgRSV224 virus amounted to 8610 nM. For the same molecule, the TOX-HELA_EC50 in the data set on HeLa cells was over 98.3603 µM.

As for `CC(C)CCn1c(Cn2c(=O)n(C3CC3)c3ccncc32)nc2cc(C#N)cnc21` [Compound 27, 2-((1-cyclopropyl-2-oxo-1H-imidazo[4,5-c]pyridin-3(2H)-yl)methyl)-3-isopentyl-3H-imidazo[4,5-b]pyridine-6-carbonitrile], the EC50 in the data set with rgRSV224 virus was 34100 nM. The molecule also registered a TOX-HELA_EC50 with HeLa cells of over 98.3603 µM.

On to `CC(C)CCn1c(Cn2c(=O)n(C3CC3)c3ccncc32)nc2cc(C(=O)O)cnc21` [Compound 28, 2-((1-cyclopropyl-2-oxo-1H-imidazo[4,5-c]pyridin-3(2H)-yl)methyl)-3-isopentyl-3H-imidazo[4,5-b]pyridine-6-carboxylic acid], for which the EC50 with rgRSV224 virus was over 49200 nM. Besides, the TOX-HELA_EC50 with HeLa cells is over 49.1802 µM.

As to `CC(C)CCn1c(Cn2c(=O)n(C(C)C)c3ccnc(C#N)c32)nc2cccnc21` [Compound 29, 3-((3-isopentyl-3H-imidazo[4,5-b]pyridin-2-yl)methyl)-1-isopropyl-2-oxo-2,3-dihydro-1H-imidazo[4,5-c]pyridine-4-carbonitrile], the EC50 in the data set with rgRSV224 virus was over 98400 nM. For the same molecule, the TOX-HELA_EC50 with HeLa cells is over 98.3603 µM.

As for `CC(C)CCn1c(Cn2c(=O)n(C3CC3)c3ccccc32)nc2cnccc21` [Compound 31], the EC50 in the data set with rgRSV224 virus was determined as 5.4 nM. The same molecule came in with a TOX-HELA_EC50 with HeLa cells of over 9.836 µM.

On to `CC(C)CCn1c(Cn2c(=O)n(C3CC3)c3ccc(F)cc32)nc2cnccc21` [Compound 32], for which the EC50 with rgRSV224 virus was 11.3 nM. In the data set with HeLa cells, this molecule came in with a TOX-HELA_EC50 of over 9.836 µM.

On to `CC(C)CCn1c(Cn2c(=O)n(C3CC3)c3ccncc32)nc2cnccc21` [Compound 33], for which the EC50 with rgRSV224 virus is 30.4 nM. Moreover, in the data set on HeLa cells, the TOX-HELA_EC50 was over 98.3603 µM.

Regarding `CC(C)CCn1c(Cn2c(=O)n(C3CC3)c3ccncc32)nc2ccncc21` [Compound 34], in the data set with rgRSV224 virus, the EC50 is 74 nM. In the data set on HeLa cells, this molecule showed a TOX-HELA_EC50 of over 98.3603 µM.
